Measurements from patent US10059717B2, “Urea compounds containing 3,4-dihydropyrimido[4,5-D]pyrimidin-2(1H)-one skeleton as protein kinase inhibitors” (KOREA INSTITUTE OF SCIENCE AND TECHNOLOGY, priority 2016, dated 2018).

Key:
U937 (N-Ras WT) = assay: Proliferation inhibitory activity, U937; type: cell-based; details: Homo sapiens, U-937; U937 (N-Ras WT) cell line; read-out: Proliferation inhibitory efficacy (GI50, μM) U937 (N-Ras WT)
Procedure: (§1) GI50 values were calculated by measuring the proliferation inhibitory efficacy of the compounds of the present invention on mt-NRAS (G12D) Ba/F3, U937 (wt-NRAS) and OCI-AML3 (mt-NRAS) cell lines.

Ba/F3 (N-Ras G12D) = assay: Proliferation inhibitory activity, Ba/F3; type: cell-based; details: Mus musculus, BaF3; Ba/F3 (N-Ras G12D) cell line; read-out: Proliferation inhibitory efficacy (GI50, μM) Ba/F3 (N-Ras G12D)
Procedure: as §1

GCK = target: T1, GCK (Homo sapiens, UniProt Q12851); assay: GCK kinase inhibitory activity; type: biochemical; details: read-out: Kinase inhibitory efficacy, GI50 GCK
T1 sequence (Q12851 1-820): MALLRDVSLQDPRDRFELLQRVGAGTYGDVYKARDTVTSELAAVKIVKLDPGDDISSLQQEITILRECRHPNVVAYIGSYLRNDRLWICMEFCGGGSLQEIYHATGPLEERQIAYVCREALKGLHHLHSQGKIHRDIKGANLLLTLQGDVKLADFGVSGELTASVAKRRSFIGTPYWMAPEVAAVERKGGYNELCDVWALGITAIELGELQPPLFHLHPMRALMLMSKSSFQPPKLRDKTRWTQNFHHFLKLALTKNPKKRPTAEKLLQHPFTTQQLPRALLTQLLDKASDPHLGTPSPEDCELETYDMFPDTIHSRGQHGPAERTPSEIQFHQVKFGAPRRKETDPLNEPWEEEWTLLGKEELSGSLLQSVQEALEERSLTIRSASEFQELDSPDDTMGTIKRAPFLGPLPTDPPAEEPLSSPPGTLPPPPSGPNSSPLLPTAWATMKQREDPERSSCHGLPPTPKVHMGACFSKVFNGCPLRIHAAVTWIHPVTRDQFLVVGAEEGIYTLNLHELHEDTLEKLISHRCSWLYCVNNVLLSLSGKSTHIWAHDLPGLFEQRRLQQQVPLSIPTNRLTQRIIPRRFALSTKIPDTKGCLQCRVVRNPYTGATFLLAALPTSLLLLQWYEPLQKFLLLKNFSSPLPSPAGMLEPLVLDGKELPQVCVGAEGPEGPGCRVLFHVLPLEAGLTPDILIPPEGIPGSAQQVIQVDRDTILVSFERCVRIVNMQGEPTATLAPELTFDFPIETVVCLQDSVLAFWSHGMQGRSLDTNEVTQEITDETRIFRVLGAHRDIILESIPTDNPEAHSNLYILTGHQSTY
Procedure: (§2) GI50 values were calculated by measuring the inhibitory efficacy of the compounds of the present invention against both GCK and ACK1 kinases.

OCI-AML3 (N-Ras Q61L) = assay: Proliferation inhibitory activity, OCI-AML3; type: cell-based; details: Homo sapiens, OCI-AML-3; OCI-AML3 (N-Ras Q61L) cell line; read-out: Proliferation inhibitory efficacy (GI50, μM) OCI-AML3 (N-Ras Q61L)
Procedure: as §1
Accordingly, the compounds of the present invention are particularly effective as a therapeutic agent for acute myelogenous leukemia (AML).

ACK1 = ACK1 (Homo sapiens, UniProt Q07912); assay: ACK1 kinase inhibitory activity; type: biochemical; details: read-out: Kinase inhibitory efficacy, GI50 ACK1
Procedure: as §2

[1] = system: cell samples from AML patients with actual NRAS mutants; details: cited from earlier work
[2] = system: preclinical leukemia models; details: cited from earlier work

ACK1, sequence (Q07912 whole entry): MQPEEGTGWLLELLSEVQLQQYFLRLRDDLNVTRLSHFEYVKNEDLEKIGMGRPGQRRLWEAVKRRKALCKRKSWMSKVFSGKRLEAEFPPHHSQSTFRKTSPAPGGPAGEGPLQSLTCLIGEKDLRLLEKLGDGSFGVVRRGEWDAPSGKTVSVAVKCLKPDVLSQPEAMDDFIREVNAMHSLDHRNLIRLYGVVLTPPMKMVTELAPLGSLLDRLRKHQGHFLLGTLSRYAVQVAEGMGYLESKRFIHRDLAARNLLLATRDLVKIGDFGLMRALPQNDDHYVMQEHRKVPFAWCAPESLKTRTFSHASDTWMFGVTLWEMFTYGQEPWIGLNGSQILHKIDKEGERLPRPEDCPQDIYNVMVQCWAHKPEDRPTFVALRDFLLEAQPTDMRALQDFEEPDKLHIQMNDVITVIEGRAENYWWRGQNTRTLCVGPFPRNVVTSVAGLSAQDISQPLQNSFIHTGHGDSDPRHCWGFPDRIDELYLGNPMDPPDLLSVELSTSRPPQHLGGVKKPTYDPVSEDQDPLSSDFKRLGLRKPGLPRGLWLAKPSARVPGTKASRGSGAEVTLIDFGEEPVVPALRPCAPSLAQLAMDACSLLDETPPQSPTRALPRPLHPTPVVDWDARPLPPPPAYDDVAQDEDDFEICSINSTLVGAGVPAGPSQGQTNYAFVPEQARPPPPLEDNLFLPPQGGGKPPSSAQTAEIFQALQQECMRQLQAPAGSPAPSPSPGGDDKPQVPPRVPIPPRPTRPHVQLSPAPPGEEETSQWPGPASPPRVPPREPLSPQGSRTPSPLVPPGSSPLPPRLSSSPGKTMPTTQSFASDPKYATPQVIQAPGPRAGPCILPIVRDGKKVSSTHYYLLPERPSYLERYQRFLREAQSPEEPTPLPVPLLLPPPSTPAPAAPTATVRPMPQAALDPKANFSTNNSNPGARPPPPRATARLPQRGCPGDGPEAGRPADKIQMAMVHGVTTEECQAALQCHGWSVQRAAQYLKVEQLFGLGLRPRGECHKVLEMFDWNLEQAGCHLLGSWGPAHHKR

GI50 (U937 (N-Ras WT)) [µM]	GI50 (Ba/F3 (N-Ras G12D)) [µM]	GI50 (GCK) [nM]	GI50 (OCI-AML3 (N-Ras Q61L)) [µM]	GI50 (ACK1) [nM]	Compound	efficacy in cell samples from AML patients [1]	inhibitory effects in preclinical leukemia models [2]
≥ 5	< 0.5	< 30	< 0.5	30 to 100	COc1ccccc1NC(=O)Nc1ccc(C)c(N2Cc3cnc(Nc4ccc(N5CCC(C(N)=O)CC5)nc4)nc3N(C)C2=O)c1 [Compound No. 18, 1-(5-((6-(5-(3-(2-methoxyphenyl)ureido)-2-methylphenyl)-8-methyl-7-oxo-5,6,7,8-tetrahydropyrimido[4,5-d]pyrimidin-2-yl)amino)pyridin-2-yl)piperidin-4-carboxamide]	–	–
–	–	–	–	–	Cc1ccc(Nc2ncc3c(n2)N(C)C(=O)N(c2cc(NC(=O)c4cccc(C(F)(F)F)c4)ccc2C)C3)cn1 [GNF 7]	exhibited its efficacy	inhibitory effects in preclinical leukemia models have been observed
